Results on 16 compounds are retold here after patent US12599672B2, “KRAS proteolysis targeting chimeras” (PAQ Therapeutics Inc., priority 2023, dated 2026).

Where only a bound is given, the exact number is not on record here.

One assay deals with T1, KRAS G12D (Homo sapiens, UniProt P01116, G12D).
T1 construct: AsPc-1-KRAS (G12D)-HiBit-KI cell (Pharmaron); host or cells: AsPc-1-KRAS (G12D)-HiBit-KI cells (HiBiT knock-in at the endogenous KRAS locus)
Nature of the assay: KRAS G12D HiBit assay. It counts as cell-based. Conditions: AsPc-1-KRAS (G12D)-HiBit-KI cell, compound treatment for 24 hours; for DC50: absolute DC50. The method, boiled down:
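Cells were treated for 24 h with compounds in a 3-fold, 10-point dilution series from a 0.3 mM DMSO stock, then equilibrated 15 min at room temperature. KRAS G12D HiBiT levels were read by luminescence after lytic Nano-Glo HiBiT reagent with LgBiT; inhibition calculated relative to 0.1% DMSO high control.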

The next assay has as its target T2, KRAS G12V (Homo sapiens, UniProt P01116, G12V).
T2 construct: SW620-KRAS (G12V)-HiBit-KI cell (Pharmaron); host or cells: SW620-KRAS (G12V)-HiBit-KI cells (HiBiT knock-in at the endogenous KRAS locus)
Put plainly: KRAS G12V HiBit assay. Conditions: SW620-KRAS (G12V)-HiBit-KI cells, compound treatment for 24 hours, class symbols. It counts as cell-based. The method, boiled down:
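HiBiT-tagged KRAS G12V cells treated 24 h with compound in a 3-fold, 10-point series (0.3 mM DMSO stock); lytic HiBiT reagent with LgBiT added after 15 min room-temperature equilibration. Degradation calculated against 0.1% DMSO high control.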

[1] abbreviates: numeric bounds given in place of class symbols.

T1 sequence (P01116 1-188 isoform P01116-2 G12D): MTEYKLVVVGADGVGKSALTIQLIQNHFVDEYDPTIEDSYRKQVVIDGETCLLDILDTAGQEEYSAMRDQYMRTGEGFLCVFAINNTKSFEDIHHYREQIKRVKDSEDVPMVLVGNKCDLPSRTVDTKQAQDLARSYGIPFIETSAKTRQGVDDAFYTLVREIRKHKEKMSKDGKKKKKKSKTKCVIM
T2 sequence (P01116 1-188 isoform P01116-2 G12V): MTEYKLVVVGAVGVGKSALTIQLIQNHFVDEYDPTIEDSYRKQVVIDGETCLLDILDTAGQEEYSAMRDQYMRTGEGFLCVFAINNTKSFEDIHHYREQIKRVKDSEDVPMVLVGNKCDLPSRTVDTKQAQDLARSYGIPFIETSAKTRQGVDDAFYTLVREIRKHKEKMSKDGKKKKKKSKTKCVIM

For `C#Cc1c(F)ccc2cc(O)cc(-c3ncc4c(N5CCC[C@@](C)(O)C5)nc(OCC5(CN6CCC(CN7CCN(c8ccc9c(c8)n(C)c(=O)n9C8CCC(=O)NC8=O)CC7)CC6)CC5)nc4c3F)c12` (stereo partly drawn) [Compound 25], the DC50 is under 100 nM on KRAS G12D (class symbols) and under 10 nM on KRAS G12V.
Consider `C#Cc1c(F)ccc2cc(O)cc(-c3ncc4c(N5CCC[C@@](C)(O)C5)nc(OCC5(CN6CCC(CN7CCN(c8cccc9c8n(C)c(=O)n9C8CCC(=O)NC8=O)CC7)CC6)CC5)nc4c3F)c12` (stereo partly drawn) [Compound 72], for which the DC50 on KRAS G12D (class symbols) was under 100 nM; at KRAS G12V it was under 10 nM.
In the same order, the values of `CCc1c(F)ccc2cc(O)cc(-c3ncc4c(N5CCC[C@@](C)(O)C5)nc(OC[C@@]56CCCN5[C@H](COC(=O)c5ccc(N7CCC(c8ccc9c(c8)n(C)c(=O)n9C8CCC(=O)NC8=O)CC7)cc5)CC6)nc4c3F)c12` (stereo partly drawn) [Compound 495, ((3S,7aS)-7a-(((7-(8-ethyl-7-fluoro-3-hydroxynaphthalen-1-yl)-8-fluoro-4-((R)-3-hydroxy-3-methylpiperidin-1-yl)pyrido[4,3-d]pyrimidin-2-yl)oxy)methyl)hexahydro-1H-pyrrolizin-3-yl)methyl 4-(4-(1-(2,6-dioxopiperidin-3-yl)-3-methyl-2-oxo-2,3-dihydro-1H-benzo[d]imidazol-5-yl)piperidin-1-yl)benzoate] are under 100 nM and 10 to 100 nM.
For `C#Cc1c(F)ccc2cc(O)cc(-c3ncc4c(N5CCC[C@@](C)(O)C5)nc(OCC5(CN6CCN(Cc7ccc8c(c7)n(C)c(=O)n8C7CCC(=O)NC7=O)CC6)CC5)nc4c3F)c12` (stereo partly drawn) [Compound 42], in that order: over 300 nM and over 100 nM.
For `CCc1c(F)ccc2cc(O)cc(-c3ccc4c(N5CCC[C@@](C)(O)C5)nc(OC[C@@]56CCCN5[C@H](COC(=O)N5CCC(CN7CCC(c8ccc9c(c8)n(C)c(=O)n9C8CCC(=O)NC8=O)CC7)CC5)CC6)nc4c3F)c12` (stereo partly drawn) [Compound 146], in that order: under 100 nM and under 10 nM.
With `C#Cc1c(F)ccc2cccc(-c3ncc4c(N5CCC[C@@](C)(O)C5)nc(OC[C@@]56CCCN5[C@H](COC(=O)N5CCC(COC7CN(c8ccc9c(c8)n(C)c(=O)n9C8CCC(=O)NC8=O)C7)CC5)CC6)nc4c3F)c12` (stereo partly drawn) [Compound 153], the DC50 at KRAS G12D (setting [1]) and at KRAS G12V was over 100 nM each time.
On to `C#Cc1c(F)ccc2cccc(-c3ncc4c(N5CCC[C@@](C)(O)C5)nc(OCC5(CN6CCC7(CC6)CC(N6CCN(c8cccc9c8n(C)c(=O)n9C8CCC(=O)NC8=O)CC6)C7)CC5)nc4c3F)c12` (stereo partly drawn) [Compound 70], for which the DC50 is over 300 nM on KRAS G12D (class symbols) and over 100 nM on KRAS G12V.
Consider `CCc1c(F)ccc2cccc(-c3ncc4c(N5CCC[C@@](C)(O)C5)nc(OC[C@@]56CCCN5[C@H](COC(=O)N5CCC(CN7CCC(c8ccc9c(c8)n(C)c(=O)n9C8CCC(=O)NC8=O)CC7)CC5)CC6)nc4c3F)c12` (stereo partly drawn) [Compound 94, [(3S,8S)-8-[[7-(8-ethyl-7-fluoro-1-naphthyl)-8-fluoro-4-[(3R)-3-hydroxy-3-methyl-1-piperidyl]pyrido[4,3-d]pyrimidin-2-yl]oxymethyl]-1,2,3,5,6,7-hexahydropyrrolizin-3-yl]methyl-4-[[4-[1-(2,6-dioxo-3-piperidyl)-3-methyl-2-oxo-benzimidazol-5-yl]-1-piperidyl]methyl]piperidine-1-carboxylate], for which the values for the DC50 at KRAS G12D (class symbols) and on KRAS G12V were under 100 nM and over 100 nM, respectively. For the same compound, on KRAS G12D (class symbols), the Dmax is over 50%.
As for `Cn1c(=O)n(C2CCC(=O)NC2=O)c2cccc(C3CCN(CC4CCN(C(=O)CN5CCN(c6nccc(-c7noc([C@@]8(C)CCCc9sc(N)c(C#N)c98)n7)n6)CC5)CC4)CC3)c21` (stereo partly drawn) [Compound 222], the DC50 is over 300 nM on KRAS G12D (class symbols) and over 100 nM at KRAS G12V.
Regarding `CCc1c(F)ccc2cc(O)cc(-c3ncc4c(N5CCC[C@@](C)(O)C5)nc(OC[C@@]56CCCN5[C@H](COC(=O)N5CC7CC(C5)C7CN5CCC(c7ccc8c(c7)n(C)c(=O)n8C7CCC(=O)NC7=O)CC5)CC6)nc4c3F)c12` (stereo partly drawn) [Compound 400, ((3S,7aS)-7a-(((7-(8-ethyl-7-fluoro-3-hydroxynaphthalen-1-yl)-8-fluoro-4-((R)-3-hydroxy-3-methylpiperidin-1-yl)pyrido[4,3-d]pyrimidin-2-yl)oxy)methyl)hexahydro-1H-pyrrolizin-3-yl)methyl 6-((4-(1-(2,6-dioxopiperidin-3-yl)-3-methyl-2-oxo-2,3-dihydro-1H-benzo[d]imidazol-5-yl)piperidin-1-yl)methyl)-3-azabicyclo[3.1.1]heptane-3-carboxylate], the DC50 was under 100 nM on KRAS G12D (class symbols) and under 10 nM on KRAS G12V.
Take `CCc1c(F)ccc2cc(O)cc(-c3ncc4c(N5CCC[C@@](C)(O)C5)nc(OC[C@@]56CCCN5[C@H](CN(C)C(=O)c5ccc(CN7CCC(c8ccc9c(c8)n(C)c(=O)n9C8CCC(=O)NC8=O)CC7)cc5)CC6)nc4c3F)c12` (stereo partly drawn) [Compound 503, 4-((4-(1-(2,6-dioxopiperidin-3-yl)-3-methyl-2-oxo-2,3-dihydro-1H-benzo[d]imidazol-5-yl)piperidin-1-yl)methyl)-N-(((3S,7aS)-7a-(((7-(8-ethyl-7-fluoro-3-hydroxynaphthalen-1-yl)-8-fluoro-4-((R)-3-hydroxy-3-methylpiperidin-1-yl)pyrido[4,3-d]pyrimidin-2-yl)oxy)methyl)hexahydro-1H-pyrrolizin-3-yl)methyl)-N-methylbenzamide]: the values for the DC50 on KRAS G12D (class symbols) and on KRAS G12V were under 100 nM and under 10 nM, respectively.
For the compound `Cn1c(=O)n(C2CCC(=O)NC2=O)c2ccc(C3CCN(C4CC5(CCN(C(=O)OC[C@@H]6CC[C@]7(COc8nc(N9CCC[C@@](C)(O)C9)c9cnc(-c%10cc(O)cc%11cccc(Cl)c%10%11)c(F)c9n8)CCCN67)CC5)C4)CC3)cc21` (stereo partly drawn) [Compound 338, ((3S,7aS)-7a-(((7-(8-chloro-3-hydroxynaphthalen-1-yl)-8-fluoro-4-((R)-3-hydroxy-3-methylpiperidin-1-yl)pyrido[4,3-d]pyrimidin-2-yl)oxy)methyl)hexahydro-1H-pyrrolizin-3-yl)methyl 2-(4-(1-(2,6-dioxopiperidin-3-yl)-3-methyl-2-oxo-2,3-dihydro-1H-benzo[d]imidazol-5-yl)piperidin-1-yl)-7-azaspiro[3.5]nonane-7-carboxylate], the DC50 on KRAS G12D (class symbols) was under 100 nM; on KRAS G12V it was under 10 nM.
On to `C#Cc1c(F)ccc2cccc(-c3ncc4c(N5CCC[C@@](C)(O)C5)nc(OC[C@@]56CCCN5[C@@H](COC(=O)N5CCC(CN7CCC(c8ccc9c(c8)n(C)c(=O)n9C8CCC(=O)NC8=O)CC7)CC5)CC6)nc4c3F)c12` (stereo partly drawn) [Compound 138], for which the DC50 on KRAS G12D (setting [1]) and on KRAS G12V was over 100 nM each time.
As to `CCc1c(F)ccc2cc(O)cc(-c3ncc4c(N5CCC[C@@](C)(O)C5)nc(OC[C@@]56CCCN5[C@H](COC(=O)N5CCC(N7CC8(CC(c9ccc%10c(c9)n(C)c(=O)n%10C9CCC(=O)NC9=O)C8)C7)CC5)CC6)nc4c3F)c12` (stereo partly drawn) [Compound 365, ((3S,7aS)-7a-(((7-(8-ethyl-7-fluoro-3-hydroxynaphthalen-1-yl)-8-fluoro-4-((R)-3-hydroxy-3-methylpiperidin-1-yl)pyrido[4,3-d]pyrimidin-2-yl)oxy)methyl)hexahydro-1H-pyrrolizin-3-yl)methyl 4-(6-(1-(2,6-dioxopiperidin-3-yl)-3-methyl-2-oxo-2,3-dihydro-1H-benzo[d]imidazol-5-yl)-2-azaspiro[3.3]heptan-2-yl)piperidine-1-carboxylate], the DC50 on KRAS G12D (class symbols) is under 100 nM; at KRAS G12V it was under 10 nM.
As for `CCc1c(F)ccc2cc(O)cc(-c3ncc4c(N5CCC[C@@](C)(O)C5)nc(OC[C@@]56CCCN5[C@H](COC(=O)N5CC7C(CN8CCC(c9ccc%10c(c9)n(C)c(=O)n%10C9CCC(=O)NC9=O)CC8)C7C5)CC6)nc4c3F)c12` (stereo partly drawn) [Compound 401, ((3S,7aS)-7a-(((7-(8-ethyl-7-fluoro-3-hydroxynaphthalen-1-yl)-8-fluoro-4-((R)-3-hydroxy-3-methylpiperidin-1-yl)pyrido[4,3-d]pyrimidin-2-yl)oxy)methyl)hexahydro-1H-pyrrolizin-3-yl)methyl 6-((4-(1-(2,6-dioxopiperidin-3-yl)-3-methyl-2-oxo-2,3-dihydro-1H-benzo[d]imidazol-5-yl)piperidin-1-yl)methyl)-3-azabicyclo[3.1.0]hexane-3-carboxylate], the figures for the DC50 on KRAS G12D (class symbols) and on KRAS G12V were under 100 nM and 10 to 100 nM, respectively.
For `CCc1c(F)ccc2cc(O)cc(-c3ncc4c(N5CCC[C@@](C)(O)C5)nc(OC[C@@]56CCCN5[C@H](COC(=O)N5CCC(N7CCC(Oc8ccc9c(c8)n(C)c(=O)n9C8CCC(=O)NC8=O)CC7)CC5)CC6)nc4c3F)c12` (stereo partly drawn) [Compound 439, ((3S,7aS)-7a-(((7-(8-ethyl-7-fluoro-3-hydroxynaphthalen-1-yl)-8-fluoro-4-((R)-3-hydroxy-3-methylpiperidin-1-yl)pyrido[4,3-d]pyrimidin-2-yl)oxy)methyl)hexahydro-1H-pyrrolizin-3-yl)methyl 4-((1-(2,6-dioxopiperidin-3-yl)-3-methyl-2-oxo-2,3-dihydro-1H-benzo[d]imidazol-5-yl)oxy)-[1,4′-bipiperidine]-1′-carboxylate], in that order: under 100 nM and under 10 nM.
